We go through one molecule from patent US20050159442A1, “Protein tyrosine phosphatase 1B (PTP-1B) inhibitors and methods of using the same” (priority 2003, published 2005).

For this assay, the target named is T1, human PTP-1B (Homo sapiens, UniProt P18031).
T1 construct: The fusion protein, which lacks the carboxyl terminus 35 amino acid residues of PTP-1B; made in house; host or cells: Escherichia coli (pGEX system)
T1 sequence (P18031 1-400 limits assumed): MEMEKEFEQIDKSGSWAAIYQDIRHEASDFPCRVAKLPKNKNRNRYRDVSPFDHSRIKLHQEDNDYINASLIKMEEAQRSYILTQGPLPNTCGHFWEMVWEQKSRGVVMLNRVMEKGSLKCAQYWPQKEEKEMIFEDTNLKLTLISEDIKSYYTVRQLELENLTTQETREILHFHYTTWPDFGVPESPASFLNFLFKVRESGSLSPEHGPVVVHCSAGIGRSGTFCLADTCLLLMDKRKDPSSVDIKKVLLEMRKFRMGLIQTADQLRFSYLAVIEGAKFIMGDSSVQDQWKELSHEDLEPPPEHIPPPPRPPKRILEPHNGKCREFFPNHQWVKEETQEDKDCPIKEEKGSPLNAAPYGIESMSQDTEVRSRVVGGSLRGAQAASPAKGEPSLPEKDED
Briefly: Assay for PTP-1B phosphatase activity (malachite green, phosphorylated insulin receptor peptide). Type of assay: biochemical. As to conditions: truncated human PTP-1B GST fusion protein, phosphorylated kinase domain of insulin receptor-1 as substrate, absorbance at 650 nm, read-out: IC50 of inhibition of PTP-1B phosphatase activity. As to the method:
PTP-1B phosphatase activity was measured as its ability to dephosphorylate a phosphorylated insulin receptor. In particular, a phosphorylated peptide derived from insulin receptor was used for the assay. The dephosphorylation reaction was monitored using a malachite green assay (Lanzetta et al., Anal Biochem. 1979, 100: 95-7), which measures the release of inorganic phosphate from the activated insulin receptor or the phosphorylated peptide derived from insulin receptor. A PTP-1B inhibitor decreases the yield of inorganic phosphate when it is added to the assay.
A substantially purified, soluble, truncated human PTP-1B GST fusion protein was used as the source of PTP-1B enzyme. […]
PTP-1B GST fusion protein (10 ng in 48 μl of assay buffer) was mixed with the phosphorylated kinase domain of insulin receptor-1 (70 μM in 201 μl of assay buffer) and the test compound (at desired concentration in 2 μl DMSO). […] After additional 30 minutes incubation at room temperature, the amount of inorganic phosphate released from the phosphorylated kinase domain of insulin receptor-1 in the reaction mixture was measured by the absorbance at 650 nm. […]

One may read the IC50 as the concentration needed to halve the response being measured. Regarding `Cc1ccc(CC/N=C2\N/C(=N\CCc3ccc(C)cc3)c3cnccc32)cc1` [Formula II, 1,3-Bis-(2-p-tolyl-ethylimino)-2,3-dihydro-1H-pyrrolo[3,4-c]pyridine], the IC50 turned out to be 910 nM.
